The results in this text go back to patent US10954221B2, “GLP-1R agonists and uses thereof” (QILU REGOR THERAPEUTICS INC., priority 2019, dated 2021).

Each structure is given as a SMILES string.

Sequence of GLP1R (P43220 24-463): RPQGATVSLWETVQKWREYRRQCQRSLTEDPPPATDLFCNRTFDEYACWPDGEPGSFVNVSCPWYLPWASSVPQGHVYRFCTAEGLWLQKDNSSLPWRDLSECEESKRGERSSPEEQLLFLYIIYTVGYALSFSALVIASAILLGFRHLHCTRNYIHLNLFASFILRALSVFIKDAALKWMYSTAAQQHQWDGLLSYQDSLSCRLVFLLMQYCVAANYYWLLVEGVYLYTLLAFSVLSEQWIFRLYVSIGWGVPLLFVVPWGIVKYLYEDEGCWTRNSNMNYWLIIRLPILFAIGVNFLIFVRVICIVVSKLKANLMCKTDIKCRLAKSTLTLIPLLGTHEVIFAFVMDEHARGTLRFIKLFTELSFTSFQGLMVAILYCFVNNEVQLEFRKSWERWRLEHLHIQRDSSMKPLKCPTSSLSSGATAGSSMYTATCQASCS

The assay concerns the target GLP1R (Homo sapiens, UniProt P43220). In words: GLP1R cAMP assay (HTRF), HEK293/GLP-1R/CRE/Luc, Clone 4. In general terms: cAMP levels reflect the balance of adenylyl cyclase and phosphodiesterase activity.
With `N#Cc1cnc(COc2nc(-c3ccc(Cc4nc5ccc(C(=O)O)nc5n4C[C@@H]4CCO4)cc3F)ncc2F)c(F)c1` [Compound 302, (S)-2-(4-(4-((5-cyano-3-fluoropyridin-2-yl)methoxy)-5-fluoropyrimidin-2-yl)-3-fluorobenzyl)-3-(oxetan-2-ylmethyl)-3H-imidazo[4,5-b]pyridine-5-carboxylic acid], the EC50 is 15 to 150 nM. Compound `O=C(O)c1ccc2nc(Cc3ccc(-c4nc(OCc5ccc(Cl)cc5F)ccc4F)c(F)c3)n(C[C@@H]3CCO3)c2c1` [Compound 261, (S)-2-(4-(6-(4-chloro-2-fluorobenzyloxy)-3-fluoropyridin-2-yl)-3-fluorobenzyl)-1-(oxetan-2-ylmethyl)-1H-benzo[d]imidazole-6-carboxylic acid] had an EC50 of less than 15 nM. For `O=C(O)c1ccc2nc(CN3CC=C(c4cccc(OCc5ccc(Cl)cc5F)n4)CC3)c(Cc3cocn3)n2c1` [Compound 327, 2-((6-((4-chloro-2-fluorobenzyl)oxy)-3′,6′-dihydro-[2,4′-bipyridin]-1′(2′H)-yl)methyl)-3-(oxazol-4-ylmethyl)imidazo[1,2-a]pyridine-6-carboxylic acid] the value was 15 to 150 nM; for `O=C(O)c1ccc2nc(CN3CC=C(c4csc(OCc5ccc(OC(F)(F)F)cc5)n4)CC3)n(C[C@@H]3CCO3)c2c1` [Compound 251, (S)-1-(oxetan-2-ylmethyl)-2-((4-(2-((4-(trifluoromethoxy)benzyl)oxy)thiazol-4-yl)-3,6-dihydropyridin-1(2H)-yl)methyl)-1H-benzo[d]imidazole-6-carboxylic acid], 15 to 150 nM.

Compound `O=C(O)c1ccc2nc(CN3CC=C(c4csc(OCc5ccc(Br)cn5)n4)CC3)n(C[C@@H]3CCO3)c2c1` [Compound 253, (S)-2-((4-(2-((5-bromopyridin-2-yl)methoxy)thiazol-4-yl)-3,6-dihydropyridin-1(2H)-yl)methyl)-1-(oxetan-2-ylmethyl)-1H-benzo[d]imidazole-6-carboxylic acid] gave an EC50 of 15 to 150 nM. For `O=C(O)c1ccc2nc(CC3CCC(c4cccc(OCc5ccc(Cl)cc5F)n4)CC3)n(C[C@@H]3CCO3)c2c1` (stereo partly drawn) [Compound 319, (S)-2-((4-(6-((4-chloro-2-fluorobenzyl)oxy)pyridin-2-yl)cyclohexyl)methyl)-1-(oxetan-2-ylmethyl)-1H-benzo[d]imidazole-6-carboxylic acid] the value was 15 to 150 nM; for `O=C(O)c1ccc2nc(C=C3CCN(c4cccc(OCc5ccc(F)cc5F)n4)CC3)n(C[C@@H]3CCO3)c2n1` [Compound 315, (S)-2-((1-(6-(2,4-difluorobenzyloxy)pyridin-2-yl)piperidin-4-ylidene)methyl)-3-(oxetan-2-ylmethyl)-3H-imidazo[4,5-b]pyridine-5-carboxylic acid], 150 to 1000 nM; for `O=C(O)c1ccc2nc(CN3CC=C(c4coc(OCc5ccc(Cl)cc5F)n4)CC3)n(C[C@@H]3CCO3)c2c1` [Compound 248, (S)-2-((4-(2-((4-chloro-2-fluorobenzyl)oxy)oxazol-4-yl)-5,6-dihydropyridin-1(2H)-yl)methyl)-1-(oxetan-2-ylmethyl)-1H-benzo[d]imidazole-6-carboxylic acid], more than 1000 nM.

Turning to `O=C(O)c1ccc2nc(Cc3cc(F)c(-c4cccc(OCc5ccc(Cl)cn5)n4)cc3F)n(C[C@@H]3CCO3)c2c1` [Compound 269, (S)-2-(4-(6-((5-chloropyridin-2-yl)methoxy)pyridin-2-yl)-2,5-difluorobenzyl)-1-(oxetan-2-ylmethyl)-1H-benzo[d]imidazole-6-carboxylic acid], the EC50 was less than 15 nM.

As to `N#Cc1ccc(COc2ccc(F)c(-c3ccc(Cc4nc5ccc(C(=O)O)cc5n4C[C@@H]4CCO4)c(F)c3)n2)c(F)c1` [Compound 268, (S)-2-(4-(6-((4-cyano-2-fluorobenzyl)oxy)-3-fluoropyridin-2-yl)-2-fluorobenzyl)-1-(oxetan-2-ylmethyl)-1H-benzo[d]imidazole-6-carboxylic acid], the EC50 was less than 15 nM. For `N#Cc1ccc(COc2cccc(N3CCC(=Cc4nc5ccc(C(=O)O)c(F)c5n4C[C@@H]4CCO4)CC3)n2)nc1` [Compound 318, (S)-2-((1-(6-((5-cyanopyridin-2-yl)methoxy)pyridin-2-yl)piperidin-4-ylidene)methyl)-7-fluoro-1-(oxetan-2-ylmethyl)-1H-benzo[d]imidazole-6-carboxylic acid] the value was 15 to 150 nM; for `N#Cc1ccc(COc2cccc(-c3ccn(Cc4nc5ccc(C(=O)O)nc5n4C[C@@H]4CCO4)c(=O)c3)n2)c(F)c1` [Compound 324, (S)-2-((6-((4-cyano-2-fluorobenzyl)oxy)-2′-oxo-[2,4′-bipyridin]-1′(2′H)-yl)methyl)-3-(oxetan-2-ylmethyl)-3H-imidazo[4,5-b]pyridine-5-carboxylic acid], 15 to 150 nM; for `O=C(O)c1ccc2nc(Cc3ccc(-c4cccc(OCc5ccc(F)cc5F)n4)cc3F)n(C[C@@H]3CCO3)c2c1` [Compound 274, (S)-2-(4-(6-((2,4-difluorobenzyl)oxy)pyridin-2-yl)-2-fluorobenzyl)-1-(oxetan-2-ylmethyl)-1H-benzo[d]imidazole-6-carboxylic acid], less than 15 nM.

For the compound `O=C(O)c1ccc2nc(Cc3ccc(-c4nccc(OCc5ccc(Cl)cc5F)n4)c(F)c3)n(C[C@@H]3CCO3)c2c1` [Compound 259, (S)-2-(4-(4-((4-chloro-2-fluorobenzyl)oxy)pyrimidin-2-yl)-3-fluorobenzyl)-1-(oxetan-2-ylmethyl)-1H-benzo[d]imidazole-6-carboxylic acid], the EC50 was less than 15 nM. For `O=C(O)c1ccc2nc(Cc3ccc(-c4cccc(OCc5ccc(-n6ccnc6)cc5)n4)cc3F)n(C[C@@H]3CCO3)c2n1` [Compound 304, (S)-2-(4-(6-((4-(1H-imidazol-1-yl)benzyl)oxy)pyridin-2-yl)-2-fluorobenzyl)-3-(oxetan-2-ylmethyl)-3H-imidazo[4,5-b]pyridine-5-carboxylic acid] the value was less than 15 nM; for `CC1(c2ccc(Cl)cc2F)Oc2cccc(C3=CCN(Cc4nc5ccc(C(=O)O)cc5n4C[C@@H]4CCO4)CC3)c2O1` (stereo partly drawn) [Compound 330, 2-((4-(2-(4-chloro-2-fluorophenyl)-2-methylbenzo[d][1,3]dioxol-4-yl)-5,6-dihydropyridin-1(2H)-yl)methyl)-1-((S)-oxetan-2-ylmethyl)-1H-benzo[d]imidazole-6-carboxylic acid], less than 15 nM.

As for `N#Cc1ccc(COc2nc(-c3cc(F)c(Cc4nc5ccc(C(=O)O)cc5n4C[C@@H]4CCO4)cc3F)ncc2F)nc1` [Compound 275, (S)-2-(4-(4-((5-cyanopyridin-2-yl)methoxy)-5-fluoropyrimidin-2-yl)-2,5-difluorobenzyl)-1-(oxetan-2-ylmethyl)-1H-benzo[d]imidazole-6-carboxylic acid], the EC50 was less than 15 nM. `N#Cc1ccc(COc2cccc(N3CCC(=Cc4nc5ccc(C(=O)O)nc5n4C[C@@H]4CCO4)CC3)n2)nc1` [Compound 316, (S)-2-((1-(6-((5-cyanopyridin-2-yl)methoxy)pyridin-2-yl)piperidin-4-ylidene)methyl)-3-(oxetan-2-ylmethyl)-3H-imidazo[4,5-b]pyridine-5-carboxylic acid] registered a concentration for a half-maximal effect (EC50) of 15 to 150 nM. For `O=C(O)c1ccc2nc(CN3CC=C(c4csc(OCc5ccc(C(F)(F)F)cc5)n4)CC3)n(C[C@@H]3CCO3)c2c1` [Compound 256, (S)-1-(oxetan-2-ylmethyl)-2-((4-(2-((4-(trifluoromethyl)benzyl)oxy)thiazol-4-yl)-3,6-dihydropyridin-1(2H)-yl)methyl)-1H-benzo[d]imidazole-6-carboxylic acid] the value was 15 to 150 nM; for `N#Cc1ccc(COc2nc(-c3ccn(Cc4nc5ccc(C(=O)O)nc5n4C[C@@H]4CCO4)c(=O)c3)ncc2F)c(F)c1` [Compound 325, (S)-2-((4-(4-((4-cyano-2-fluorobenzyl)oxy)-5-fluoropyrimidin-2-yl)-2-oxopyridin-1(2H)-yl)methyl)-3-(oxetan-2-ylmethyl)-3H-imidazo[4,5-b]pyridine-5-carboxylic acid], 15 to 150 nM. For `N#Cc1ccc(COc2cccc(-c3ccc(Cc4nc5ccc(C(=O)O)nc5n4C[C@@H]4CCO4)c(F)c3)n2)c(F)c1` [Compound 282, (S)-2-(4-(6-((4-cyano-2-fluorobenzyl)oxy)pyridin-2-yl)-2-fluorobenzyl)-3-(oxetan-2-ylmethyl)-3H-imidazo[4,5-b]pyridine-5-carboxylic acid] the value was less than 15 nM. Turning to `O=C(O)c1ccc2nc(Cc3cc(F)c(-c4ncc(F)c(OCc5ncc(Cl)cc5F)n4)cc3F)n(C[C@@H]3CCO3)c2n1` [Compound 273, (S)-2-(4-(4-((5-chloro-3-fluoropyridin-2-yl)methoxy)-5-fluoropyrimidin-2-yl)-2,5-difluorobenzyl)-3-(oxetan-2-ylmethyl)-3H-imidazo[4,5-b]pyridine-5-carboxylic acid], the EC50 is less than 15 nM.

With `O=C(O)c1ccc2nc(Cc3ccc(-c4cccc(OCc5ccc(Cl)cc5F)n4)cc3F)n(C[C@@H]3CCO3)c2c1F` [Compound 309, (S)-2-(4-(6-((4-chloro-2-fluorobenzyl)oxy)pyridin-2-yl)-2-fluorobenzyl)-7-fluoro-1-(oxetan-2-ylmethyl)-1H-benzo[d]imidazole-6-carboxylic acid], the EC50 was less than 15 nM. For `N#Cc1ccc(COc2cccc(-c3ccc(Nc4nc5ccc(C(=O)O)cc5n4C[C@@H]4CCO4)c(F)c3)n2)c(F)c1` [Compound 320, (S)-2-((4-(6-((4-cyano-2-fluorobenzyl)oxy)pyridin-2-yl)-2-fluorophenyl)amino)-1-(oxetan-2-ylmethyl)-1H-benzo[d]imidazole-6-carboxylic acid] the value was 15 to 150 nM; for `Cc1cc(Cc2nc3ccc(C(=O)O)cc3n2C[C@@H]2CCO2)ccc1-c1cccc(OCc2ccc(Cl)cc2F)n1` [Compound 270, (S)-2-(4-(6-((4-chloro-2-fluorobenzyl)oxy)pyridin-2-yl)-3-methylbenzyl)-1-(oxetan-2-ylmethyl)-1H-benzo[d]imidazole-6-carboxylic acid], less than 15 nM.

What is called EC50 is the concentration at which the effect is half-maximal.
